Assay results taken from publication PMC12133982, “Predominant T-cell epitopes of SARS-CoV-2 restricted by multiple prevalent HLA-B and HLA-C allotypes in Northeast Asia” (Frontiers in Immunology, 2025).
pIC50: −log10 of the molar value. Peptide text beside a SMILES is read from it.

Tests used:
HLA-C0801 = HLA-C0801 (Homo sapiens, UniProt P10321, A176T/A330V/A97T/C350S/D114A/D138N/D33Y/E201K/E299G/L171W/L218V/M285V/M309V/M331V/P208H/Q277E/Q291P/R59Q/S123Y/S140F/S297R/S48A/T329A/T363A/V319A/V328M); assay: Competitive peptide binding assay, CIR-C0801; conditions: HMy2.CIR-C0801 cells, reference Cy5-[…], class from inhibition at 5 and 15 μM, flow cytometry MFI; read-out: Binding affinity with HLA-C0801
Description: (§1) Then, competitive peptide binding assays were performed.

HLA-C0702 = HLA-C0702 (Homo sapiens, UniProt P10321); assay: Competitive peptide binding assay, CIR-C0702
HLA-C0302 = HLA-C0302 (Homo sapiens, UniProt P10321, A176E/A330V/A97T/C25G/C350S/D114A/D33Y/E197K/L127V/L171W/L218V/M285V/M309V/M331V/P208H/Q277E/Q291P/R243W/R45H/S123Y/S297R/S48A/T118I/T187L/T329A/T363A/V319A); assay: Competitive peptide binding assay, CIR-C0302; conditions: HMy2.CIR-C0302 cells, reference Cy5-[…], class from inhibition at 5 and 15 μM, flow cytometry MFI; read-out: Binding affinity with HLA-C0302
Description: as §1

HLA-C0304 = HLA-C0304 (Homo sapiens, UniProt P10321, A176E/A330V/A97T/C25G/C350S/D114A/D33Y/E197K/L119I/L127V/L171W/L218V/M285V/M309V/M331V/P208H/Q277E/Q291P/R243W/R45H/S123Y/S140Y/S297R/S48A/T118I/T187L/T329A/T363A/V319A); assay: Competitive peptide binding assay, CIR-C0304; conditions: HMy2.CIR-C0304 cells, reference Cy5-[…], class from inhibition at 5 and 15 μM, flow cytometry MFI; read-out: Binding affinity with HLA-C0304
Description: as §1

HLA-C0401 = HLA-C0401 (Homo sapiens, UniProt P10321, A176E/A330V/A35S/A73E/C25G/C350S/D138N/D33S/E299K/L171W/L180R/L218V/M285V/M309V/M331V/N104K/P208H/Q277E/Q291P/R243W/R38W/S101N/S123F/S140F/S297R/S48A/T329A/T363A/V319A/V327M); assay: Competitive peptide binding assay, CIR-C0401; conditions: HMy2.CIR-C0401 cells, reference Cy5-[…], class from inhibition at 5 and 15 μM, flow cytometry MFI; read-out: Binding affinity with HLA-C0401
Description: as §1

HLA-C0602 = HLA-C0602 (Homo sapiens, UniProt P10321, A176E/A330V/C350S/L171W/L180W/L218V/M285V/M309V/M331V/N104K/P208H/Q277E/Q291P/R121W/S101N/S123Y/S297R/T329A/T363A/V319A/V328M); assay: Competitive peptide binding assay, CIR-C0602
HLA-C0102 = HLA-C0102 (Homo sapiens, UniProt P10321, A176E/A330V/A35S/A97T/C350S/D114A/D33F/L171W/L180R/L218V/M285V/M309V/M331V/P208H/Q277E/Q291P/R121W/R243W/R30K/S123C/S140Y/S297R/T329A/T363A/V272M/V319A); assay: Competitive peptide binding assay, CIR-C0102; conditions: for pIC50: HMy2.CIR-C0102 cells, reference Cy5-[…], class from inhibition at 5 and 15 μM, flow cytometry MFI, read-out: Binding affinity with HLA-C0102
Description: as §1

HLA-B4001 = HLA-B4001 (Homo sapiens, UniProt P01889, A65T/A93T/A95T/D138N/D98Y/E176V/E69K/N87E/Q56L/Q94N/R180L/S121R/S35A/S48T/T167S/V36M/W171L/Y33H/Y91S); assay: Competitive peptide binding assay, CIR-B4001; conditions: HMy2.CIR-B4001 cells, reference Cy5-[…], class from inhibition at 5 and 15 μM, flow cytometry MFI; read-out: Binding affinity with HLA-B4001
Description: as §1

HLA-B1301 = HLA-B1301 (Homo sapiens, UniProt P01889, A65T/A93T/A95T/D138N/D201E/D98Y/E176V/E204Q/E69M/E70A/G107R/K202T/L105A/L119I/N104T/N87E/Q94N/R106L/R155S/R169L/R180L/S101N/S121R/S35A/S48T/T118I/V127L/V36M/Y140L/Y91S); assay: Competitive peptide binding assay, CIR-B1301; conditions: HMy2.CIR-B1301 cells, reference Cy5-[…], class from inhibition at 5 and 15 μM, flow cytometry MFI; read-out: Binding affinity with HLA-B1301
Description: as §1

HLA-B1501 = HLA-B1501 (Homo sapiens, UniProt P01889, A329T/A93T/A95T/C349S/D201E/D98Y/E187L/E204Q/E69M/E70A/K202T/N87E/Q94N/R155S/R180W/S121R/S35A/S48A/V306I/V36M/Y140S/Y91S); assay: Competitive peptide binding assay, CIR-B1501; conditions: HMy2.CIR-B1501 cells, reference Cy5-[…], class from inhibition at 5 and 15 μM, flow cytometry MFI; read-out: Binding affinity with HLA-B1501
Description: as §1

HLA-B3501 = HLA-B3501 (Homo sapiens, UniProt P01889, A329T/A93T/A95T/C349S/D201E/D98Y/E176V/E187L/E204Q/E69T/I218V/K202T/L119I/Q94N/R155S/R180L/S121R/S35A/S48A/T118I/V127L/V306I/V36M/Y140S/Y91F); assay: Competitive peptide binding assay, CIR-B3501; conditions: HMy2.CIR-B3501 cells, reference Cy5-[…], class from inhibition at 5 and 15 μM, flow cytometry MFI; read-out: Binding affinity with HLA-B3501
Description: as §1

HLA-B5801 = HLA-B5801 (Homo sapiens, UniProt P01889, A329T/C349S/D201E/D98Y/E176V/E187L/E204Q/E69T/G107R/I218V/I90N/K202T/L105A/L119I/N104I/N87E/Q89R/Q94S/R106L/R155S/R180L/R86G/S101N/S121R/S35A/S48A/T118I/V127L/V306I/V36M/Y140S/Y91M); assay: Competitive peptide binding assay, CIR-B5801; conditions: HMy2.CIR-B5801 cells, reference Cy5-[…], class from inhibition at 5 and 15 μM, flow cytometry MFI; read-out: Binding affinity with HLA-B5801
Description: as §1

HLA-B4601 = HLA-B4601 (Homo sapiens, UniProt P01889, A329T/A93R/C349S/D201E/E100V/E187L/E204Q/E69M/E70A/I90K/K202T/N87E/R155S/R180W/S121R/S35A/S48A/V306I/V36M/Y140S); assay: Competitive peptide binding assay, CIR-B4601; conditions: for pIC50: HMy2.CIR-B4601 cells, reference Cy5-[…], class from inhibition at 5 and 15 μM, flow cytometry MFI, read-out: Binding affinity with HLA-B4601; for inhibition at 5 µM: read-out: Inhibition % of Cy5-reference peptide binding, CIR-B4601, 5μM peptide; for inhibition at 15 µM: read-out: Inhibition % of Cy5-reference peptide binding, CIR-B4601, 15μM peptide
Description: as §1

HLA-B1502 = HLA-B1502 (Homo sapiens, UniProt P01889, A329T/A93T/A95T/C349S/D201E/D98Y/E187L/E204Q/E69M/E70A/H137Y/K202T/L119I/Q94N/R155S/R180L/S121R/S35A/S48A/T118I/V306I/V36M/Y140S/Y91S); assay: Competitive peptide binding assay, CIR-B1502; conditions: HMy2.CIR-B1502 cells, reference Cy5-[…], class from inhibition at 5 and 15 μM, flow cytometry MFI; read-out: Binding affinity with HLA-B1502
Description: as §1

HLA-B1302 = HLA-B1302 (Homo sapiens, UniProt P01889, A65T/A93T/A95T/D138N/D201E/D98Y/E176V/E204Q/E69M/E70A/G107R/K202T/L105A/L119W/N104T/N87E/Q94N/R106L/R155S/R169L/R180L/S101N/S121T/S35A/S48T/V127L/V36M/Y140L/Y91S); assay: Competitive peptide binding assay, CIR-B1302; conditions: HMy2.CIR-B1302 cells, reference Cy5-MMWYWGPSL, class from inhibition at 5 and 15 μM, flow cytometry MFI; read-out: Binding affinity with HLA-B1302
Description: as §1

[1] = read-out: Inhibition % of Cy5-reference peptide binding

Row | SMILES | pIC50 (HLA-C0304) | pIC50 (HLA-B4001) | pIC50 (HLA-B1301) | pIC50 (HLA-B1501) | pIC50 (HLA-B3501) | pIC50 (HLA-B5801) | pIC50 (HLA-B4601) | further results
1 | CC(C)C[C@H](NC(=O)[C@@H](NC(=O)[C@H](CCCNC(=N)N)NC(=O)[C@H](CO)NC(=O)[C@@H](NC(=O)[C@H](C)NC(=O)[C@@H](N)C(C)C)[C@@H](C)O)[C@@H](C)O)C(=O)N[C@@H](CO)C(=O)N[C@@H](Cc1ccc(O)cc1)C(=O)O [Epitope M72] (H-VATSRTLSY-OH; N-terminus and C-terminus assumed) | < 4.82 |  |  |  |  |  |  | pIC50 (HLA-C0801): > 5.30; pIC50 (HLA-C0702): < 4.82; pIC50 (HLA-C0302): < 4.82; pIC50 (HLA-C0401): < 4.82
2 | CC(C)C[C@H](NC(=O)[C@@H](NC(=O)[C@@H](NC(=O)CNC(=O)[C@H](CCC(N)=O)NC(=O)[C@@H]1CCCN1C(=O)[C@H](CC(C)C)NC(=O)[C@H](CCC(N)=O)NC(=O)[C@H](CC(C)C)NC(=O)[C@@H](N)C(C)C)[C@@H](C)O)[C@@H](C)O)C(=O)O [Epitope M18] (H-VLQLPQGTTL-OH; N-terminus and C-terminus assumed) | < 4.82 |  |  |  |  |  |  | pIC50 (HLA-C0801): < 4.82; pIC50 (HLA-C0602): < 4.82; pIC50 (HLA-C0102): 4.82 to 5.30
3 | CC[C@H](C)[C@H](NC(=O)[C@H](CC(N)=O)NC(=O)[C@@H](NC(=O)[C@H](CCC(=O)O)NC(=O)[C@@H]1CCCN1C(=O)[C@H](CC(N)=O)NC(=O)[C@H](Cc1ccccc1)NC(=O)[C@H](CO)NC(=O)[C@@H](N)Cc1c[nH]c2ccccc12)[C@@H](C)O)C(=O)O [Epitope Y297] (H-WSFNPETNI-OH; N-terminus and C-terminus assumed) |  | < 4.82 | < 4.82 | > 5.30 |  |  |  | 
4 | CC[C@H](C)[C@H](NC(=O)[C@@H](NC(=O)[C@H](CC(C)C)NC(=O)[C@H](CC(N)=O)NC(=O)[C@H](Cc1c[nH]c2ccccc12)NC(=O)[C@H](CCC(N)=O)NC(=O)[C@H](CCC(=O)O)NC(=O)[C@@H](N)CC(C)C)C(C)C)C(=O)NCC(=O)O [Epitope Y215] (H-LEQWNLVIG-OH; N-terminus and C-terminus assumed) |  | 4.82 to 5.30 | 4.82 to 5.30 |  | < 4.82 | < 4.82 | 4.82 to 5.30 | inhibition at 5 µM (HLA-B4601): 47.2%; inhibition at 15 µM (HLA-B4601): 87.3%
5 | C[C@H](NC(=O)CNC(=O)[C@H](C)NC(=O)[C@@H](NC(=O)[C@@H](N)Cc1c[nH]c2ccccc12)[C@@H](C)O)C(=O)N[C@@H](C)C(=O)N[C@@H](C)C(=O)N[C@@H](Cc1ccc(O)cc1)C(=O)N[C@@H](Cc1ccc(O)cc1)C(=O)O [Epitope Y174] (H-WTAGAAAYY-OH; N-terminus and C-terminus assumed) |  | < 4.82 |  | 4.82 to 5.30 | < 4.82 | < 4.82 | < 4.82 | pIC50 (HLA-B1502): > 5.30
6 | CC(C)C[C@H](NC(=O)[C@H](CC(C)C)NC(=O)[C@H](CC(C)C)NC(=O)[C@H](CC(N)=O)NC(=O)[C@H](CO)NC(=O)[C@H](CS)NC(=O)[C@H](CCC(=O)O)NC(=O)[C@@H](N)[C@@H](C)O)C(=O)N[C@@H](CCC(N)=O)C(=O)N[C@@H](Cc1ccc(O)cc1)C(=O)O [Epitope Y231] (H-TECSNLLLQY-OH; N-terminus and C-terminus assumed) |  | < 4.82 | 4.82 to 5.30 | < 4.82 |  |  | > 5.30 | pIC50 (HLA-B1502): < 4.82; inhibition at 5 µM (HLA-B4601): 73.8%; inhibition at 15 µM (HLA-B4601): 89.3%; pIC50 (HLA-B1302): < 4.82
7 | CC[C@H](C)[C@H](NC(=O)[C@@H]1CCCN1C(=O)[C@@H](NC(=O)[C@H](Cc1c[nH]cn1)NC(=O)[C@H](CCCCN)NC(=O)[C@H](CO)NC(=O)[C@H](Cc1ccc(O)cc1)NC(=O)[C@@H](NC(=O)[C@@H](N)CCCCN)[C@@H](C)CC)[C@@H](C)O)C(=O)O [Epitope M34] (H-KIYSKHTPI-OH; N-terminus and C-terminus assumed) | < 4.82 |  |  |  |  |  |  | pIC50 (HLA-C0302): < 4.82; pIC50 (HLA-C0102): > 5.30; inhibition at 5 µM (HLA-C0102; [1]): 77.4%; inhibition at 15 µM (HLA-C0102; [1]): 91.2%; pIC50 (HLA-C0401): 4.82 to 5.30
8 | CC[C@H](C)[C@H](NC(=O)[C@@H](NC(=O)CNC(=O)[C@H](CC(N)=O)NC(=O)[C@H](CO)NC(=O)[C@H](CC(=O)O)NC(=O)[C@H](C)N)[C@@H](C)O)C(=O)N[C@H](C(=O)N[C@H](C(=O)O)C(C)C)[C@@H](C)O [Epitope Y216] (H-ADSNGTITV-OH; N-terminus and C-terminus assumed) |  | 4.82 to 5.30 | < 4.82 |  | < 4.82 | 4.82 to 5.30 | < 4.82 | pIC50 (HLA-B1302): < 4.82
